No end group written: not given here.
Legend:
[1] = test system: mouse melanoma cell line B16F1; test: Inhibitory activity against melanin formation in mouse melanoma cell line B16F1; assay type: cell-based; details: B16F1 cells, α-MSH 100 nM, peptide 0.1, 1 and 10 μM, 24 hours, FIG. 5
Protocol: B16F1 cells (Korean Cell Line Bank, Seoul) were added to each well of a 6-well plate (1.5×10^5 cells per well), along with 2 ml of DMEM, and then incubated in a 5% CO2 incubator at 37° C. for 24 hours. α-MSH (Sigma Co, MO, USA) (100 nM) was treated to each well, along with the peptide of SEQ ID NO: 3 in the final concentrations of 0.1, 1, and 10 μM. The groups in which α-MSH (100 nM) and foskolin (Sigma Co, MO, USA) (10 μM) were respectively treated were used as positive controls. And also, the group having no treatment (i.e., no α-MSH (100 nM) treatment) and the group in which α-MSH (100 nM) and Kojic acid (Sigma Co, MO, USA) (800 μM) were treated were used as negative controls. After additionally incubating the plate for 24 hours, the pictures of each culture ware taken so as to compare the respective levels of melanin formation.

tyrosinase = test: Inhibitory activity against tyrosinase activity in mouse melanoma cell line B16F1 (L-DOPA); assay type: cell-based; details: B16F1 cells, α-MSH, 72 hours, extracts with L-DOPA 2 hours, absorbance at 490, FIG. 6
Protocol: B16F1 cells (Korean Cell Line Bank, Seoul) were added to each well of a 24-well plate (5×10^4 cells per well), along with 1 ml of DMEM, and then stabilized through incubating in a 5% CO2 incubator at 37° C. for 24 hours. α-MSH (Sigma Co, MO, USA), a melanocyte-stimulating hormone, was treated to each well, along with the peptide of SEQ ID NO: 3 in predetermined concentrations. After incubating the plate for 72 hours, the proteins were extracted therefrom. The obtained extracts were added to each well of a 96-well plate and then treated with a L-dihydroxyphenylalanine (L-DOPA) solution (100 μL) at 37° C. for 2 hours. After 2 hours, the pictures thereof were taken and the tyrosinase activities thereof were measured at […] with a microreader.

tyrosinase (TYR) = test: Gene expression of tyrosinase in B16F1 cells (RT-PCR); assay type: cell-based, mouse; details: α-MSH, 72 hours, FIG. 7
Protocol: (§1) B16F1 cells (Korean Cell Line Bank, Seoul) were added to each well of a 6-well plate (1.5×10^5 cells per well), along with 2 ml of DMEM, and then stabilized through incubating in a 5% CO2 incubator at 37° C. for 24 hours. α-MSH (Sigma Co, MO, USA), a melanocyte-stimulating hormone, was treated to each well, along with the peptide of SEQ ID NO: 3 in predetermined concentrations. After incubating the plate for 72 hours, the total RNAs were extracted therefrom and then cDNAs were synthesized. The cDNA syntheses were carried out with a Reverse Transcription Master premix (Elpisbiotech, Daejeon, Korea). Using each synthesized cDNA as a template, reverse transcription polymerase chain reaction (RT-PCR) was carried out with a ROTOR Q GENE apparatus. Each RT-PCR solution was prepared by mixing 1 μl of cDNA, 10 μl of TOPreal qRT-PCR2X premix (Enzynomics, Daejeon, Korea), 2 μl of primer set (10 pmol) and 7 μl of D. W. The RT-PCR was carried out as follows: initially at 94° C. for 10 minutes; and then at 94° C. for 10 seconds, at 58° C. for 30 seconds, and at 72° C. for 1 minute; 40 cycles.
(§2) The results obtained by measuring the gene expressions of tyrosinase, TRP-1 and TRP-2 through the above RT-PCR are shown in FIG. 7.

TRP-1 = test: Gene expression of TRP-1 in B16F1 cells (RT-PCR); assay type: cell-based, mouse; details: α-MSH, 72 hours, FIG. 7
Protocol: as §1, §2

TRP-2 = test: Gene expression of TRP-2 in B16F1 cells (RT-PCR); assay type: cell-based, mouse; details: α-MSH, 72 hours, FIG. 7
Protocol: as §1, §2

B16F1 cells = test: Inhibitory activity against proliferation of mouse melanoma cell line B16F1 (CCK-8); assay type: cell-based; details: peptide 0.01, 0.1, 1 or 10 μM, 24, 48 and 72 hours, CCK-8, FIG. 8
Protocol: B16F1 cells (Korean Cell Line Bank, Seoul) were added to each well of a 96-well plate (5×10^3 cells per well), along with 100 μL of DMEM, and then incubated in a 5% CO2 incubator at 37° C. for 24 hours. The respective wells were treated with 10 μL of each peptide solution of SEQ ID NO: 3 having a concentration of 0.01, 0.1, 1, or 10 μM. After incubating the plate for 24, 48, and 72 hours, each well was treated with CCK-8 (Dojindo Laboratories, Japan) for 1 hour and then the absorbance thereof was measured at 450 nm, using a Spectramax plus 190 plate reader (Molecular Devices, USA).

BCL-2 = test: Inhibitory activity against BCL-2 expression in mouse melanoma cell line B16F1 (Western blotting); assay type: cell-based; details: B16F1 cells, UV-B 50 mJ/cm^2 plus peptide in predetermined concentrations, 24 hours, Western blot, FIG. 9
Protocol: The expression of BCL-2, playing a critical role in proliferation of melanocytes, is controlled by MITF. Whether the BCL-2 expression in melanocytes is inhibited by the treatment of the peptide of the present invention was evaluated, using a Western blotting assay. B16F1 cells (Korean Cell Line Bank, Seoul) were added to each well of a 6-well plate (1.5×10^5 cells per well), along with 2 ml of DMEM, and then incubated in a 5% CO2 incubator at 37° C. for 24 hours. Each well was treated with UV-B irradiation (50 mJ/cm^2) and the peptide of SEQ ID NO: 3 in predetermined concentrations. After incubating the plate for 24 hours, the proteins were extracted therefrom. The extracts were subject to the Western blotting assay using an anti-BCL-2 antibody (Santa Cruz Co., CA, USA).

Substance	melanin formation (colour of cell culture) [1]	tyrosinase activity (tyrosinase)	expression of tyrosinase (TYR) (tyrosinase (TYR))	expression of TRP-1 (TRP-1)	expression of TRP-2 (TRP-2)	proliferation of B16F1 cells (B16F1 cells)	expression levels of BCL-2 (BCL-2)
Lys-Gly-Arg (KGR; Peptide fragment) [SEQ ID NO: 3, MITF-derived peptide fragment]	decreased according to the concentrations of the peptide	decreased in concentration-dependent manner	decreased in concentration-dependent manner	decreased in concentration-dependent manner	decreased in concentration-dependent manner	decreased in concentration-dependent manner	reduced
α-melanocyte stimulating hormone (SYSMEHFRWGKPV; ends and bridges not checked; UniProt P01189 138-150, looked up) [α-MSH, melanocyte-stimulating hormone (Sigma), used as stimulus / positive control, reference compound]	–	increased	increased	increased	increased	–	–

Source: patent US9493528B2, “Microphthalmia-associated transcription factor-derived peptide and composition containing same” (KNU-INDUSTRY COOPERATION FOUNDATION, priority 2013, dated 2016)
